According to US11578097B2, “Tetrazole derivatives of bile acids as FXR/TGR5 agonists and methods of use thereof” (Enanta Pharmaceuticals, Inc., priority 2014, dated 2023):

Molecular target: T1, human FXR (NR1H4) (Homo sapiens, UniProt Q96RI1)
T1 construct: host or cells: CHO (Chinese hamster ovary) cells
T1 sequence (Q96RI1 1-486): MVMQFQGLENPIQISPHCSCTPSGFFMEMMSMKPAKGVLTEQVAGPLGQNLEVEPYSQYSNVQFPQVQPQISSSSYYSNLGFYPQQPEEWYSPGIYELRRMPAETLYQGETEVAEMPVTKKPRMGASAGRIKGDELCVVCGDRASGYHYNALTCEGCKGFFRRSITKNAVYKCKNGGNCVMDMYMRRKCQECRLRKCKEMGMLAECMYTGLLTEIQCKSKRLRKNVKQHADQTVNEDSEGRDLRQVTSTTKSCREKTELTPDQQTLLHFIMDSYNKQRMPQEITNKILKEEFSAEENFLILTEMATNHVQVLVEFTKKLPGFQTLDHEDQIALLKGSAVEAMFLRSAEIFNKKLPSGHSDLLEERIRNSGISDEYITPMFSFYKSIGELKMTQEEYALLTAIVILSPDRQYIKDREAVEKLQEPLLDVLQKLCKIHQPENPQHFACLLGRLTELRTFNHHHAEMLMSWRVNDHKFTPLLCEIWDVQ
Test: Human FXR (NR1H4) reporter assay (Gal4 promoter driven transactivation, luciferase)
Format: cell-based
Settings: for Efficacy (%): normalized to CDCA set as 100%
Description: Assays Human FXR (NR1H4) Assay Determination of a ligand mediated Gal4 promoter driven transactivation to quantify ligand binding mediated activation of FXR. FXR Reporter Assay kit purchased from Indigo Bioscience (Catalogue number: IB00601) to determine the potency and efficacy of compound developed by Enanta that can induce FXR activation. The principal application of this reporter assay system is to quantify functional activity of human FXR. The assay utilizes non-human mammalian cells, CHO (Chinese hamster ovary) cells engineered to express human NR1H4 protein (referred to as FXR). Reporter cells also incorporate the cDNA encoding beetle luciferase which catalyzes the substrates and yields photon emission. Luminescence intensity of the reaction is quantified using a plate-reading luminometer, Envision. Reporter Cells include the luciferase reporter gene functionally linked to an FXR responsive promoter. Thus, quantifying changes in luciferase expression in the treated reporter cells provides a sensitive surrogate measure of the changes in FXR activity. […] The assay is according to the manufacturer's instructions. In brief, the assay was performed in white, 96 well plates using final volume of 100 ul containing cells with different doses of compounds. Retrieve Reporter Cells from −80° C. storage. Perform a rapid thaw of the frozen cells by transferring a 10 ml volume of 37° C. cell recovery medium into the tube of frozen cells. Recap the tube of Reporter Cells and immediately place it in a 37° C. water bath for 5-10 minutes. Retrieve the tube of Reporter Cell Suspension from the water bath. Sanitize the outside surface of the tube with a 70% alcohol swab, and then transfer it into the cell culture hood. Dispense 90 μl of cell suspension into each well of the 96-well Assay Plate. Transfer the plate into 37° C. incubator, allowing the cells adherent to the bottom of the well. Dilute compounds in Dilution Plate (DP), and administrate to cells at Assay Plate (AP). DMSO content of the samples was kept at 0.2%. Cells were incubated for additional 22 hours before luciferase activities were measured. Thirty minutes before intending to quantify FXR activity, remove Detection Substrate and Detection Buffer from the refrigerator and place them in a low-light area so that they may equilibrate to room temperature. Remove the plate's lid and discard all media contents by ejecting it into an appropriate waste container. Gently tap the inverted plate onto a clean absorbent paper towel to remove residual droplets. Cells will remain tightly adhered to well bottoms. Add 100 μl of luciferase detection reagent to each well of the assay plate. Allow the assay plate to rest at room temperature for at least 5 minutes following the addition of LDR. Set the instrument (Envision) to perform a single 5 second “plate shake” prior to reading the first assay well. Read time may be 0.5 second (500 mSec) per well.

| Structure (SMILES) | EC50 [µM] | Efficacy (%) |
| --- | --- | --- |
| CC[C@H]1[C@@H](O)[C@@H]2[C@H](CC[C@]3(C)[C@@H]([C@H](C)CCc4nnn[nH]4)CC[C@@H]23)[C@@]2(C)CC[C@@H](O)C[C@@H]12 [Example 1] | 1 to 10 | 397 |
| CC[C@H]1[C@@H](O)[C@@H]2[C@H](CC[C@]3(C)[C@@H]([C@H](C)CCCc4nnn[nH]4)CC[C@@H]23)[C@@]2(C)CC[C@@H](O)C[C@@H]12 [Example 2] | 0.1 to 1 | 354 |
| CC[C@H]1[C@@H](O)[C@@H]2[C@H](CC[C@]3(C)[C@@H]([C@H](C)Cc4nnn[nH]4)CC[C@@H]23)[C@@]2(C)CC[C@@H](O)C[C@@H]12 [Example 3] | 1 to 10 | 192 |
| CC[C@H]1[C@@H](O)[C@@H]2[C@H](CC[C@]3(C)[C@@H]([C@H](C)CCCCc4nn[nH]n4)CC[C@@H]23)[C@@]2(C)CC[C@@H](O)C[C@@H]12 [Example 4] | 0.1 to 1 | 234 |
| CC[C@H]1[C@@H](O)[C@@H]2[C@H](CC[C@]3(C)[C@@H]([C@H](C)CCCCCc4nn[nH]n4)CC[C@@H]23)[C@@]2(C)CC[C@@H](O)C[C@@H]12 [Example 5] | 0.1 to 1 | 191 |
| CC[C@H]1[C@@H](O)[C@@H]2[C@H](CC[C@]3(C)[C@@H]([C@H](C)CCC(=O)Nc4nnn[nH]4)CC[C@@H]23)[C@@]2(C)CC[C@@H](O)C[C@@H]12 [Example 6] | 1 to 10 | 105 |
